In ChEMBL document CHEMBL3779893, “Identification of novel GLUT inhibitors” (Bioorg Med Chem Lett, 2016) one finds IC50 data, which are given here for 42 compounds.

Assay [1] concerns the target T1, Solute carrier family 2, facilitated glucose transporter member 1 (Homo sapiens, UniProt P11166).
T1 sequence (P11166 whole entry): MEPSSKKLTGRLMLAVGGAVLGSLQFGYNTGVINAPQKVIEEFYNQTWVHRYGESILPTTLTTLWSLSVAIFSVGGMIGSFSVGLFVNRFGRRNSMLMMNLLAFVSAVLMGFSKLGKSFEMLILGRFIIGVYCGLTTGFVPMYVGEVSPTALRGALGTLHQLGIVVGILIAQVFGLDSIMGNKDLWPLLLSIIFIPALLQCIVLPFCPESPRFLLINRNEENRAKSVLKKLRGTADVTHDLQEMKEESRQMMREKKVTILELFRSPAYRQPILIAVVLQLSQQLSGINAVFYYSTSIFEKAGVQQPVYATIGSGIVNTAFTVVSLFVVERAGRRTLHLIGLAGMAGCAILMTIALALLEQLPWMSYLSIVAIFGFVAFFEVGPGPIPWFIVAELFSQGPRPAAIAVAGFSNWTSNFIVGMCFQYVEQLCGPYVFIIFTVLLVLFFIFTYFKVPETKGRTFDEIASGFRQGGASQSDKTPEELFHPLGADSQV
The experiment in a line: Inhibition of human GLUT1 expressed in DLD1 cells assessed as ATP production co-incubated with 100 mM glucose for 16 hrs by CellTiter-Glo assay in presence of oxidative phosphorylation inhibitor rotenone. It is filed as cell-based, DLD-1.

Assay [2] addresses T2, Solute carrier family 2, facilitated glucose transporter member 3 (Homo sapiens, UniProt P11169).
T2 sequence (P11169 whole entry): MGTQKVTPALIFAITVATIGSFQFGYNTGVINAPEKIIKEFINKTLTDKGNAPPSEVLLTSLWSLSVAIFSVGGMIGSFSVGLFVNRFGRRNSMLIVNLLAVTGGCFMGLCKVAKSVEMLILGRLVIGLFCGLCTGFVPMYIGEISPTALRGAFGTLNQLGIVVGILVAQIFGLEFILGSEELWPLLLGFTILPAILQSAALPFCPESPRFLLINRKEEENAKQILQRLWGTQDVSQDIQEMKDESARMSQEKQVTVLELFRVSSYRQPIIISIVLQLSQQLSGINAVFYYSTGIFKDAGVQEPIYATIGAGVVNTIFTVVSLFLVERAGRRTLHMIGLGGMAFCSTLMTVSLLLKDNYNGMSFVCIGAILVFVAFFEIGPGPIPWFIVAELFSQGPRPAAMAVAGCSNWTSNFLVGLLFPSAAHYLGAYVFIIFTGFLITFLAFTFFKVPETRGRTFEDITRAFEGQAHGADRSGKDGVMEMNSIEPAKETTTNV
Put plainly: Inhibition of human GLUT3 expressed in GLUT1 knock-out DLD1 cells assessed as ATP production co-incubated with 300 mM glucose for 16 hrs by CellTiter-Glo assay in presence of oxidative phosphorylation inhibitor rotenone. Format: cell-based, DLD-1. In general terms: In ATP-based viability assays light output follows the ATP content of the culture.

Assay [3] has as its target T3, Solute carrier family 2, facilitated glucose transporter member 2 (Homo sapiens, UniProt P11168).
T3 sequence (P11168 whole entry): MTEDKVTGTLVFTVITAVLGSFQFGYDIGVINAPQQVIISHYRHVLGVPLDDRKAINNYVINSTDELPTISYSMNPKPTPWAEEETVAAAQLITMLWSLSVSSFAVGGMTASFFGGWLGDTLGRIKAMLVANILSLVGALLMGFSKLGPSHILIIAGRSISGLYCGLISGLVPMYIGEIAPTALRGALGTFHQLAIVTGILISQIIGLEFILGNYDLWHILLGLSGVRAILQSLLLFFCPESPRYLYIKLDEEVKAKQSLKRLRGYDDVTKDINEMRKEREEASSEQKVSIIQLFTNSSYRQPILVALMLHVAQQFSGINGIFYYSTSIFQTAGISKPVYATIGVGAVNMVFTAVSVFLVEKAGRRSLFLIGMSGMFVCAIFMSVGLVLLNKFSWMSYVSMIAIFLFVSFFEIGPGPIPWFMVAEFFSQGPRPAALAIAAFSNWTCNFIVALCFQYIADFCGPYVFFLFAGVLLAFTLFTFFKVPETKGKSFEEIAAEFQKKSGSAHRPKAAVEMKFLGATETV
The experiment in a line: Inhibition of human GLUT2 expressed in CHO cells assessed as ATP production co-incubated with 30 mM fructose for 16 hrs by CellTiter-Glo assay in presence of oxidative phosphorylation inhibitor rotenone. Format: cell-based.

Each structure is given as a SMILES string. Some results are limits rather than exact numbers.

By IC50 is commonly meant the concentration at which inhibition is half-maximal.

Take `COc1ccccc1N1CCN(c2ncnc3c2cnn3-c2cccc(C)c2)CC1`: the half-maximal inhibitory concentration (IC50) is 0.05 µM in assay [1], 0.096 µM in assay [2] and 10 µM in assay [3].

`COc1ccccc1N1CCN(c2ncnc3c2[nH]c(=O)n3-c2ccccc2)CC1`: the 50% inhibitory concentration (IC50) in assay [1] was 0.053 µM; in assay [2] it was 0.63 µM; in assay [3], above 10 µM.

In the case of `COc1ccccc1N1C[C@H]2C[C@@H]1CN2c1ncnc2c1cnn2-c1ccccc1`, the 50% inhibitory concentration (IC50) in assay [1], in assay [2] and in assay [3] was above 10 µM each time.

Consider `COc1ccc(C#N)cc1N1CCN(c2ncnc3c2cnn3-c2ccccc2)CC1`, for which the IC50 in assay [1] was 0.02 µM; in assay [2], 0.05 µM; in assay [3], above 10 µM.

For `COc1ccccc1N1CC2(C1)CN(c1ncnc3c1cnn3-c1ccccc1)C2`, the IC50 is 4.4 µM in assay [1] and 2.2 µM in assay [2].

Regarding `COc1ccccc1N1CCN(c2ncnc3c2cnn3-c2ccccc2OC)CC1`, the IC50 is 0.05 µM in assay [1], 0.11 µM in assay [2] and 1.2 µM in assay [3].

On to `COc1ccncc1N1CCN(c2ncnc3c2cnn3-c2ccccc2)CC1`, for which the half-inhibitory concentration (IC50) was 0.009 µM in assay [1], 0.06 µM in assay [2] and 0.51 µM in assay [3].

As for `FC(F)(F)Oc1ccccc1N1CCN(c2ncnc3c2cnn3-c2ccccc2)CC1`, the IC50 in assay [1], in assay [2] and in assay [3] was above 10 µM throughout.

For the compound `Fc1ccccc1N1CCN(c2ncnc3c2cnn3-c2ccccc2)CC1`, the IC50 in assay [1] turned out to be 0.27 µM; in assay [2], 0.68 µM; in assay [3], 1.12 µM.

As to `COc1ccc(N2CCN(c3ncnc4c3cnn4-c3ccccc3)CC2)cc1`, the half-inhibitory concentration (IC50) was found to be 1.77 µM in assay [1], 1.77 µM in assay [2] and 8.7 µM in assay [3].

As for `COc1ccc(-n2ncc3c(N4CCN(c5ccccc5OC)CC4)ncnc32)cn1`, the IC50 was determined as 0.1 µM in assay [1] and 0.34 µM in assay [2].

`N#Cc1cccc(N2CCN(c3ncnc4c3cnn4-c3ccccc3)CC2)c1`: the values for the IC50 in assay [1], in assay [2] and in assay [3] were 0.039 µM, 0.069 µM and 0.22 µM, respectively.

Consider `COc1ccccc1N1C[C@@H]2C[C@H]1CN2c1ncnc2c1cnn2-c1ccccc1`, for which the IC50 is 2.3 µM in assay [1], 4.1 µM in assay [2] and above 10 µM in assay [3].

For the compound `COc1ccccc1N1CCN(c2ccnc3c2cnn3-c2ccccc2)CC1`, the IC50 in assay [1] worked out at 0.3 µM; in assay [2], 4 µM; in assay [3], 0.6 µM.

For `COc1ncccc1N1CCN(c2ncnc3c2cnn3-c2ccccc2)CC1`, the IC50 was 0.18 µM in assay [1], 0.68 µM in assay [2] and 1.36 µM in assay [3].

As to `COc1ccccc1N1CCN(c2ncnc3c2cnn3-c2cccc(C#N)c2)CC1`, the IC50 in assay [1] came to 0.033 µM; in assay [2], 0.35 µM.

As to `COc1cccc(-n2ncc3c(N4CCN(c5ccccc5OC)CC4)ncnc32)c1`, the IC50 in assay [1] is 0.2 µM; in assay [2], 0.17 µM; in assay [3] it was 0.9 µM.

Consider `COc1ccccc1N1CCN(c2ncnc3c2ncn3-c2ccccc2)CC1`, for which the half-maximal inhibitory concentration (IC50) in assay [1] was found to be 0.027 µM; in assay [2], 0.064 µM; in assay [3], 3.5 µM.

As to `COc1cc(F)ccc1N1CCN(c2ncnc3c2cnn3-c2ccccc2)CC1`, the 50% inhibitory concentration (IC50) is 0.01 µM in assay [1], 0.04 µM in assay [2] and above 10 µM in assay [3].

As for `OC1CCCCC1N1CCN(c2ncnc3c2cnn3-c2ccccc2)CC1` (stereo not given), the IC50 in assay [1], in assay [2] and in assay [3] was above 10 µM throughout.

Consider `N#Cc1ccccc1N1CCN(c2ncnc3c2cnn3-c2ccccc2)CC1`, for which the IC50 in assay [1] was 1.81 µM; in assay [2], 2.05 µM; in assay [3], 5.99 µM.

In the case of `Oc1ccccc1N1CCN(c2ncnc3c2cnn3-c2ccccc2)CC1`, the half-maximal inhibitory concentration (IC50) was 0.007 µM in assay [1], 0.06 µM in assay [2] and 0.06 µM in assay [3].

`COc1c(F)cccc1N1CCN(c2ncnc3c2cnn3-c2ccccc2)CC1`: the IC50 is 2.4 µM in assay [1], 10 µM in assay [2] and above 10 µM in assay [3].

In the case of `COc1cc(C#N)ccc1N1CCN(c2ncnc3c2cnn3-c2ccccc2)CC1`, the 50% inhibitory concentration (IC50) was 0.15 µM in assay [1], 0.17 µM in assay [2] and 1.7 µM in assay [3].

On to `COc1ccccc1N1CCC(c2ncnc3c2cnn3-c2ccccc2)CC1`, for which the half-inhibitory concentration (IC50) in assay [1] came out at 0.47 µM; in assay [2], 1.2 µM.

Consider `COc1ccccc1N1CCN(c2ncnc3c2cnn3-c2ccccc2)CC1C` (stereo not given), for which the IC50 in assay [1] worked out at 0.014 µM; in assay [2] it was 0.12 µM; in assay [3] it was 1.4 µM.

As for `COc1ccc(C(N)=O)cc1N1CCN(c2ncnc3c2cnn3-c2ccccc2)CC1`, the IC50 in assay [1] is 0.005 µM; in assay [2], 0.037 µM; in assay [3], 0.1 µM.

`COc1ccccc1N1CCN(c2ncnc3c2cnn3-c2ccccc2C)CC1`: the IC50 in assay [1] was 0.01 µM; in assay [2], 0.25 µM; in assay [3] it was 1 µM.

As for `COc1ccccc1N1CCN(c2ncnc3c2nnn3-c2ccccc2)CC1`, the results for the IC50 in assay [1], in assay [2] and in assay [3] were 0.049 µM, 0.43 µM and 3.3 µM, respectively.

For the compound `COc1c(C#N)cccc1N1CCN(c2ncnc3c2cnn3-c2ccccc2)CC1`, the IC50 in assay [1] is 1.2 µM; in assay [2], 0.54 µM; in assay [3], above 10 µM.

Regarding `COc1ccccc1N1CCN(c2ncnc3c2cnn3-c2ncccc2F)CC1`, the results for the IC50 in assay [1] and in assay [3] were 0.08 µM and 7 µM, respectively.

For `FC(F)(F)c1ccccc1N1CCN(c2ncnc3c2cnn3-c2ccccc2)CC1`, the IC50 in assay [1], in assay [2] and in assay [3] was above 10 µM in each case.

As for `COc1ccccc1N1CCN(c2ncnc3c2cnn3-c2ccccc2)C(C)C1` (stereo not given), the IC50 in assay [1] amounted to 0.12 µM; in assay [2] it was 0.48 µM; in assay [3] it was 2.5 µM.

Consider `COc1cccc(F)c1N1CCN(c2ncnc3c2cnn3-c2ccccc2)CC1`, for which the concentration for half-maximal inhibition (IC50) in assay [1] amounted to 0.11 µM; in assay [2], 1.6 µM; in assay [3] it was 1.2 µM.

For the compound `COc1ccccc1C1CCN(c2ncnc3c2cnn3-c2ccccc2)CC1`, the 50% inhibitory concentration (IC50) in assay [1] was 1.9 µM; in assay [2], above 10 µM; in assay [3], above 10 µM.

As for `COc1ccccc1N1CCN(c2nccc3c2cnn3-c2ccccc2)CC1`, the IC50 turned out to be 4 µM in assay [1], 2 µM in assay [2] and 5 µM in assay [3].

With `COc1cccc(N2CCN(c3ncnc4c3cnn4-c3ccccc3)CC2)c1`, the IC50 in assay [1] worked out at 0.18 µM; in assay [2] it was 0.32 µM; in assay [3] it was 1.48 µM.

On to `COc1cccnc1N1CCN(c2ncnc3c2cnn3-c2ccccc2)CC1`, for which the concentration for half-maximal inhibition (IC50) was 0.06 µM in assay [1], 0.07 µM in assay [2] and 0.95 µM in assay [3].

On to `COc1cnccc1N1CCN(c2ncnc3c2cnn3-c2ccccc2)CC1`, for which the IC50 came out at 0.23 µM in assay [1] and 1.51 µM in assay [2].

Take `COc1ccccc1N1CCN(c2nnnc3c2cnn3-c2ccccc2)CC1`: the IC50 in assay [1], in assay [2] and in assay [3] was above 10 µM in each case.

Take `COc1ccccc1N1CCCN(c2ncnc3c2cnn3-c2ccccc2)CC1`: the concentration for half-maximal inhibition (IC50) was found to be 0.004 µM in assay [1], 0.008 µM in assay [2] and 0.021 µM in assay [3].

As to `Fc1cccc(N2CCN(c3ncnc4c3cnn4-c3ccccc3)CC2)c1`, the IC50 amounted to 0.29 µM in assay [1], 0.54 µM in assay [2] and 1.21 µM in assay [3].
